Results: the supplement of paper PMC10307832

Legend:
Experiment in all cases: relative viability (nuclei count vs DMSO), 5 days (fraction); higher = more cells survive
[1] = compound: C[As](C)SC[C@H](NC(=O)CC[C@H](N)C(=O)O)C(=O)NCC(=O)O [Darinaparsin] + O=C(CCCCCCC(=O)Nc1ccccc1)NO [Vorinostat] (partner 1 µM)
How it was run: (§1)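 Each reported value is a median over duplicate plates. It expresses relative viability: treated-well nuclei count divided by vehicle-well nuclei count. Lung cancer cell lines in 1536-well plates were dosed by pin tool a day after seeding, alone with one drug or with a fixed anchor-drug dose plus five library-drug doses (not always all listed) in √10 steps, and nuclei were counted after 5 days.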

[2] = compound: C[As](C)SC[C@H](NC(=O)CC[C@H](N)C(=O)O)C(=O)NCC(=O)O [Darinaparsin] + Nc1ncn([C@H]2C[C@H](O)[C@@H](CO)O2)c(=O)n1 [Decitabine] (partner 2 µM)
How it was run: as §1

AZ628 + Navitoclax = compound: CC1=C(C=C(C=C1)NC(=O)C2=CC(=CC=C2)C(C)(C)C#N)NC3=CC4=C(C=C3)N=CN(C4=O)C [AZ628] + CC1(C)CCC(c2ccc(Cl)cc2)=C(CN2CCN(c3ccc(C(=O)NS(=O)(=O)c4ccc(N[C@H](CCN5CCOCC5)CSc5ccccc5)c(S(=O)(=O)C(F)(F)F)c4)cc3)CC2)C1 [Navitoclax] (partner 0.5 µM)
How it was run: as §1

Darinaparsin + AZD7762 = compound: C[As](C)SC[C@H](NC(=O)CC[C@H](N)C(=O)O)C(=O)NCC(=O)O [Darinaparsin] + NC(=O)Nc1cc(-c2cccc(F)c2)sc1C(=O)N[C@H]1CCCNC1 [AZD7762] (partner 0.2 µM)
How it was run: as §1

Row | Cell Line | relative viability ([1]; first compound 0.08 µM) | relative viability ([1]; first compound 0.8 µM) | relative viability ([1]; first compound 2.53 µM) | relative viability ([1]; first compound 8 µM) | relative viability ([2]; first compound 0.08 µM) | relative viability ([2]; first compound 0.8 µM) | relative viability ([2]; first compound 2.53 µM) | relative viability ([2]; first compound 8 µM) | relative viability (AZ628 + Navitoclax; first compound 0.08 µM) | relative viability (AZ628 + Navitoclax; first compound 0.253 µM) | relative viability (AZ628 + Navitoclax; first compound 0.8 µM) | relative viability (AZ628 + Navitoclax; first compound 2.53 µM) | relative viability (AZ628 + Navitoclax; first compound 8 µM) | relative viability (Darinaparsin + AZD7762; first compound 0.08 µM) | relative viability (Darinaparsin + AZD7762; first compound 0.8 µM) | relative viability (Darinaparsin + AZD7762; first compound 2.53 µM) | relative viability (Darinaparsin + AZD7762; first compound 8 µM)
1 | NCI-H1355 | 0.703 | 0.617 | 0.488 | 0.683 | 0.38 | 0.357 | 0.304 | 0.369 | 0.99 | 0.808 | 0.931 | 0.903 | 0.746 | 0.933 | 0.72 | 0.568 | 0.828
2 | NCI-H2170 | 0.967 | 0.694 | 0.676 | 1.17 | 0.488 | 0.502 | 0.544 | 0.458 | 0.654 | 0.636 | 0.707 | 0.748 | 0.721 | 0.946 | 0.916 | 0.852 | 1.11
3 | NCI-H2405 | 1.07 | 1.02 | 0.924 | 1.12 | 0.802 | 0.716 | 0.663 | 0.735 | 0.49 | 0.64 | 0.53 | 0.415 | 0.575 | 1.04 | 0.666 | 0.68 | 0.817
4 | PC-3 [JPC-3] | 0.903 | 0.739 | 0.945 | 0.872 | 0.748 | 0.773 | 0.847 | 0.796 | 0.835 | 0.782 | 0.875 | 0.814 | 0.817 | 0.972 | 0.807 | 0.668 | 0.85
5 | LXF-289 | 0.775 | 0.788 | 0.828 | 0.779 | 0.41 | 0.424 | 0.347 | 0.4 | 0.941 | 0.875 | 0.87 | 0.942 | 0.568 | 1.15 | 1.19 | 0.931 | 1.14
6 | NCI-H1437 | 0.907 | 0.854 | 0.911 | 1.06 | 0.653 | 0.565 | 0.583 | 0.599 | 1.09 | 1.09 | 1.19 | 1.25 | 1.07 | 1.2 | 1.2 | 1.03 | 1.26
7 | NCI-H838 | 0.704 | 0.738 | 0.728 | 0.76 | 0.488 | 0.425 | 0.47 | 0.513 | 1.15 | 1.19 | 1.1 | 1.11 | 0.991 | 1.03 | 0.963 | 0.971 | 1.07
8 | LK-2 | 0.283 | 0.268 | 0.256 | 0.263 | 0.281 | 0.235 | 0.277 | 0.333 | 1.07 | 0.887 | 0.847 | 0.818 | 0.634 | 0.482 |  | 0.335 | 0.581
9 | H3255 | 0.746 | 0.788 | 0.745 | 0.895 | 0.634 | 0.587 | 0.662 | 0.674 | 0.496 | 0.503 | 0.558 | 0.489 | 0.227 | 0.858 | 0.915 | 0.797 | 1.05
10 | PC-14 | 0.691 | 0.753 | 0.545 | 0.572 | 0.253 | 0.197 | 0.201 | 0.202 | 1.03 | 0.997 | 1.1 | 1.17 | 0.977 | 0.481 | 0.361 | 0.422 | 0.379
11 | HCC-78 | 0.487 | 0.422 | 0.465 | 0.43 | 0.729 | 0.668 | 0.65 | 0.853 | 0.902 | 0.782 | 0.85 | 0.746 | 0.92 | 0.587 | 0.706 | 0.58 | 0.699
12 | NCI-H3122 | 1.18 | 1.22 | 0.927 | 1.36 | 0.425 | 0.437 | 0.42 | 0.442 | 0.929 | 0.762 | 0.73 | 0.555 | 0.42 | 1.14 | 1 | 0.937 | 1.34
13 | NCI-H596 | 0.543 | 0.632 | 0.576 | 0.543 | 1.02 | 1.11 | 1 | 1.15 | 0.839 | 1 | 1.08 | 1.03 | 0.931 | 1.23 | 1.13 | 0.98 | 1.25
14 | NCI-H727 | 1.24 | 1.14 | 1.16 | 1.36 | 0.891 | 0.816 | 0.9 | 1.04 | 0.339 | 0.276 | 0.163 | 0.154 | 0.165 | 0.556 | 0.599 | 0.598 | 0.581
15 | NCI-H1666 | 1.2 | 0.899 | 1.18 | 1.08 | 0.679 | 0.74 | 0.766 | 0.786 | 0.865 | 0.771 | 0.728 | 0.772 | 0.513 | 0.706 | 0.897 | 0.915 | 0.873
16 | NCI-H460 | 1.35 | 0.831 | 0.569 | 1 | 0.749 | 0.496 | 0.461 | 0.59 | 1.2 | 1.18 | 1.09 | 1.09 | 0.561 | 0.806 | 0.675 | 0.534 | 0.585
17 | LC-2-ad | 0.805 | 0.762 | 0.657 | 0.829 | 0.905 | 0.838 | 0.786 | 0.899 | 0.406 | 0.348 | 0.589 | 0.54 | 0.347 | 1.07 | 0.859 | 0.679 | 1.02
18 | LCLC-103H | 0.796 | 0.713 | 0.732 | 0.885 | 0.788 | 0.722 | 0.715 | 0.8 |  |  |  |  |  | 0.813 | 0.74 | 0.727 | 0.777
19 | NCI-H1648 |  | 0.301 |  | 0.56 |  | 0.474 |  | 0.494 |  |  |  |  |  |  | 0.65 |  | 0.691
